Biological target: T1, NKCC1 (Homo sapiens, UniProt P55011)
T1 construct: endogenous in cells; host or cells: native HEK293 cells
T1 sequence (P55011 1-1212): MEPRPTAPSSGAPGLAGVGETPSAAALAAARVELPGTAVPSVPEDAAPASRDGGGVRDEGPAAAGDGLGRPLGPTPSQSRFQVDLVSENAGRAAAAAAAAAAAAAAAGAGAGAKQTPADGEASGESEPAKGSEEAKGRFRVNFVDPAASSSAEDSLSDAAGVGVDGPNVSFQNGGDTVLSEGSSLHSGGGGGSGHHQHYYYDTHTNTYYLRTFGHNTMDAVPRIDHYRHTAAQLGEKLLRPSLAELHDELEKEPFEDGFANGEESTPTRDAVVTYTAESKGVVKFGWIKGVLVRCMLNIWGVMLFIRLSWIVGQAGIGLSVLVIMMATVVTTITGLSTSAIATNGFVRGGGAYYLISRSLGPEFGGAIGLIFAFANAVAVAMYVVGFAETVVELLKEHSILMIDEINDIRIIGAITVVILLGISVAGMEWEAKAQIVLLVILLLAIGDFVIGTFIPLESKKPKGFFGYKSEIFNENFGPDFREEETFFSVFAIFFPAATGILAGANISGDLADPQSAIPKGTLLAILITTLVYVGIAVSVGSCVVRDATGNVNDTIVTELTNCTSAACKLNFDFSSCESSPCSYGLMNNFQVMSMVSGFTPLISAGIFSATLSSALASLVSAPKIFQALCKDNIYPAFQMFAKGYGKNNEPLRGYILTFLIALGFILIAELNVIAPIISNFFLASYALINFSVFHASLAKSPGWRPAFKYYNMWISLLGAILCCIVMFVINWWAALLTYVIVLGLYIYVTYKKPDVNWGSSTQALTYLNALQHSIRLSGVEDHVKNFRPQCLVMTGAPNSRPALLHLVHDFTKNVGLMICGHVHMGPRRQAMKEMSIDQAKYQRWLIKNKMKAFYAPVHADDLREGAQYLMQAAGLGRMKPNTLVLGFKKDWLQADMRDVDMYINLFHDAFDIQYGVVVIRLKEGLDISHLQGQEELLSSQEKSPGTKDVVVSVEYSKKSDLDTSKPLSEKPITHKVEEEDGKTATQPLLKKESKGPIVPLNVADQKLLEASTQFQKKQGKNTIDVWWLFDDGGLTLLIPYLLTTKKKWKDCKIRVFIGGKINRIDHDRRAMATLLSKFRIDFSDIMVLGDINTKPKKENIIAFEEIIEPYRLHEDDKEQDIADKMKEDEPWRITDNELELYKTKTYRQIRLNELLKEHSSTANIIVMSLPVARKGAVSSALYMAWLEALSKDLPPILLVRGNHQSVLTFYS
Test: NKCC1-mediated K+ influx (83Rb tracer uptake) in native HEK293 cells, hypertonic saline, 100 μM ouabain
Format: cell-based
Settings: HEK293, no drug = 1000, 20 μM bumetanide = 0; for inhibition at 2 µM: read-out: NKCC1 mediated flux inhibition at 2 μM (%); for inhibition at 20 µM: read-out: NKCC1 mediated flux inhibition at 20 μM (%)
How it was run: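 Native cells in slightly hypertonic saline with 100 μM ouabain; 15 min preincubation then 15 min 83Rb uptake (0.25 μCi/mL), scintillation counting normalized to protein. Compounds at 2 μM and 20 μM; flux scaled 1000 (no drug) to 0 (20 μM bumetanide), triplicate dishes.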

SMILES | inhibition at 2 µM [%] | inhibition at 20 µM [%]
CCCCNc1cc(C(=O)O)cc(S(=O)(=Nc2ccccc2)N2CCCCCC2)c1Oc1ccccc1 (stereo not drawn) [Compound 101, 3-[S-(azepan-1-yl)-N-phenyl-sulfonimidoyl]-5-(butylamino)-4-phenoxy-benzoic acid] | 10 to 30 | 10 to 30
CCCCNc1cc(C(=O)NC)cc(S(=N)(=O)NCc2ccccc2)c1Oc1ccccc1 (centres unmarked) [Compound 102, 3-[(benzylamino)sulfonimidoyl]-5-(butylamino)-N-methyl-4-phenoxy-benzamide] |  | 10 to 30
CCCCNc1cc(C(=O)NC)cc(S(=N)(=O)NCC2CCOCC2)c1Oc1ccccc1 (centres unmarked) [Compound 103, 3-(butylamino)-N-methyl-4-phenoxy-5-[(tetrahydropyran-4-ylmethylamino)sulfonimidoyl]benzamide] | 30 to 50 | 50 to 75
CCCCNc1cc(C(=O)NC)cc(S(=N)(=O)Nc2ccccc2)c1Oc1ccccc1 (centres unmarked) [Compound 104, 3-(anilinosulfonimidoyl)-5-(butylamino)-N-methyl-4-phenoxy-] | 30 to 50 | 
CCCCNc1cc(C(=O)N(C)C)cc(S(=N)(=O)Nc2ccccc2)c1Oc1ccccc1 (centres unmarked) [Compound 105, 3-(anilinosulfonimidoyl)-5-(butylamino)-N,N-dimethyl-4-phenoxy-benzamide] | 30 to 50 | 10 to 30
CCCCNc1cc(C(=O)NC2CC2)cc(S(=N)(=O)Nc2ccccc2)c1Oc1ccccc1 (centres unmarked) [Compound 106, 3-(anilinosulfonimidoyl)-5-(butylamino)-N-cyclopropyl-4-phenoxy-benzamide] | 30 to 50 | 
CCCCNc1cc(C(=O)NCC2CC2)cc(S(=N)(=O)Nc2ccccc2)c1Oc1ccccc1 (centres unmarked) [Compound 107, 3-(anilinosulfonimidoyl)-5-(butylamino)-N-(cyclopropylmethyl)-4-phenoxy-benzamide] |  | 10 to 30
CCCCNc1cc(C(=O)NOC)cc(S(=N)(=O)Nc2ccccc2)c1Oc1ccccc1 (centres unmarked) [Compound 108, 3-(anilinosulfonimidoyl)-5-(butylamino)-N-methoxy-4-phenoxy-benzamide] | 30 to 50 | 30 to 50
CCCCNc1cc(C(=O)NCCOC)cc(S(=N)(=O)Nc2ccccc2)c1Oc1ccccc1 (centres unmarked) [Compound 109, 3-(anilinosulfonimidoyl)-5-(butylamino)-N-(2-methoxyethyl)-4-phenoxy-benzamide] |  | 10 to 30
CCCCNc1cc(C(=O)NCC(F)F)cc(S(=N)(=O)Nc2ccccc2)c1Oc1ccccc1 (centres unmarked) [Compound 110, 3-(anilinosulfonimidoyl)-5-(butylamino)-N-(2,2-difluoroethyl)-4-phenoxy-benzamide] |  | 10 to 30
CCCCNc1cc(C(=O)NCC(F)(F)F)cc(S(=N)(=O)Nc2ccccc2)c1Oc1ccccc1 (centres unmarked) [Compound 111, 3-(anilinosulfonimidoyl)-5-(butylamino)-N-(2,2,2-trifluoroethyl)-4-phenoxy-benzamide] |  | 10 to 30
CCCCNc1cc(C(=O)NC)cc(S(=N)(=O)N2Cc3ccccc3C2)c1Oc1ccccc1 (centres unmarked) [Compound 112, 3-(butylamino)-5-(isoindolin-2-ylsulfonimidoyl)-N-methyl-4-phenoxy-benzamide] | 10 to 30 | 
CCCCNc1cc(C(=O)NOC)cc(S(=N)(=O)N2Cc3ccccc3C2)c1Oc1ccccc1 (centres unmarked) [Compound 113, 3-(butylamino)-5-(isoindolin-2-ylsulfonimidoyl)-N-methoxy-4-phenoxy-benzamide] | 30 to 50 | 10 to 30
CCCCNc1cc(C(=O)NCCOC)cc(S(=N)(=O)N2Cc3ccccc3C2)c1Oc1ccccc1 (centres unmarked) [Compound 114, 3-(butylamino)-5-(isoindolin-2-ylsulfonimidoyl)-N-(2-methoxyethyl)-4-phenoxy-benzamide] | 30 to 50 | 10 to 30
CCCCNc1cc(C(=O)NCC(F)(F)F)cc(S(=N)(=O)N2Cc3ccccc3C2)c1Oc1ccccc1 (centres unmarked) [Compound 115, 3-(butylamino)-5-(isoindolin-2-ylsulfonimidoyl)-4-phenoxy-N-(2,2,2-trifluoroethyl)benzamide] | 50 to 75 | 10 to 30
CCCCNc1cc(C(=O)NC)cc(S(=N)(=O)NCc2cccc(Cl)c2)c1Oc1ccccc1 (centres unmarked) [Compound 116, 3-(butylamino)-5-[[(3-chlorophenyl)methylamino]sulfonimidoyl]-N-methyl-4-phenoxy-benzamide] | 30 to 50 | 
CCCCNc1cc(C(=O)NOC)cc(S(=N)(=O)NCc2cccc(Cl)c2)c1Oc1ccccc1 (centres unmarked) [Compound 117, 3-(butylamino)-5-[[(3-chlorophenyl)methylamino]sulfonimidoyl]-N-methoxy-4-phenoxy-benzamide] | 30 to 50 | 10 to 30
CCCCNc1cc(C(=O)NCCOC)cc(S(=N)(=O)NCc2cccc(Cl)c2)c1Oc1ccccc1 (centres unmarked) [Compound 118, 3-(butylamino)-5-[[(3-chlorophenyl)methylamino]sulfonimidoyl]-N-(2-methoxyethyl)-4-phenoxy-benzamide] | 10 to 30 | 10 to 30
CCCCNc1cc(C(=O)NCC(F)(F)F)cc(S(=N)(=O)NCc2cccc(Cl)c2)c1Oc1ccccc1 (centres unmarked) [Compound 119, 3-(butylamino)-5-[[(3-chlorophenyl)methylamino]sulfonimidoyl]-4-phenoxy-N-(2,2,2-trifluoroethyl)benzamide] | 10 to 30 | 10 to 30
CCCCNc1cc(C(=O)NCCC(F)(F)F)cc(S(=N)(=O)Nc2ccccc2)c1Oc1ccccc1 (centres unmarked) [Compound 120, 3-(anilinosulfonimidoyl)-5-(butylamino)-4-phenoxy-N-(3,3,3-trifluoropropyl)benzamide] | 30 to 50 | 30 to 50
CCCCNc1cc(C(=O)NOC)cc(S(=N)(=O)NC2CCOCC2)c1Oc1ccccc1 (centres unmarked) [Compound 121, 3-(butylamino)-N-methoxy-4-phenoxy-5-[(tetrahydropyran-4-ylamino)sulfonimidoyl]benzamide] | 30 to 50 | 30 to 50
CCCCNc1cc(C(=O)NCCOC)cc(S(=N)(=O)NC2CCOCC2)c1Oc1ccccc1 (centres unmarked) [Compound 122, 3-(butylamino)-N-(2-methoxyethyl)-4-phenoxy-5-[(tetrahydropyran-4-ylamino)sulfonimidoyl]benzamide] | 30 to 50 | 30 to 50
CCCCNc1cc(C(=O)NCC(F)(F)F)cc(S(=N)(=O)NC2CCOCC2)c1Oc1ccccc1 (centres unmarked) [Compound 123, 3-(butylamino)-4-phenoxy-5-[(tetrahydropyran-4-ylamino)sulfonimidoyl]-N-(2,2,2-trifluoroethyl)benzamide] | 30 to 50 | 10 to 30
CCCCNc1cc(C(=O)OC)cc(S(=O)(=O)Nc2ccccc2)c1Oc1ccccc1 [Compound 124, methyl 3-(butylamino)-4-phenoxy-5-(phenylsulfamoyl)benzoate] | 30 to 50 | 30 to 50
CCCCNc1cc(C(=O)O)cc(S(=O)(=O)Nc2ccccc2)c1Oc1ccccc1 [Compound 125, 3-(butylamino)-4-phenoxy-5-(phenylsulfamoyl)benzoic acid] | ≥ 75 | ≥ 75
CCCCNc1cc(-c2nnn[nH]2)cc(S(=O)(=O)Nc2ccccc2)c1Oc1ccccc1 [Compound 126, 3-(butylamino)-2-phenoxy-N-phenyl-5-(1H-tetrazol-5-yl)benzenesulfonamide] | 30 to 50 | ≥ 75
CCCCNc1cc(-c2nc(=O)o[nH]2)cc(S(=O)(=O)Nc2ccccc2)c1Oc1ccccc1 [Compound 127, 3-(butylamino)-5-(5-oxo-2H-1,2,4-oxadiazol-3-yl)-2-phenoxy-N-phenyl-benzenesulfonamide] | 10 to 30 | 30 to 50
CCCCNc1cc(C(=O)O)cc(S(C)(=N)=O)c1Oc1ccccc1 (centres unmarked) [Compound 130, 3-(butylamino)-5-(methylsulfonimidoyl)-4-phenoxy-benzoic acid] | 10 to 30 | 50 to 75

Source: patent US20260374782A1, “NEW COMPOUNDS, PROCESSES FOR PREPARING THE SAME AND THEIR USE AS DRUGS” (B&A ONCOMEDICAL, priority 2022, published 2026)
